Source: US11866405B2, “Substituted indazoles as IRAK4 inhibitors” (AstraZeneca AB, priority 2020, dated 2024)

Key:
[1] = molecular target: human recombinant IRAK4 protein (Homo sapiens (Human), UniProt Q9NWZ3); experiment: IRAK4 enzyme assay (mass spectrometry readout); assay type: biochemical; conditions: 3 mM ATP, 0.2 nM enzyme; geometric mean of at least n=2, * single experiment
Experimental: Potency of IRAK4 Inhibitor Compounds in IRAK4 Enzyme Assay
The inhibitory activity of compounds against IRAK4 were determined in an enzymatic assay using mass spectrometry readout. Ten point half-log compound concentration response curves, with a top concentration of 1 μM or 10 μM, were generated from 10 mM stocks of compound solubilized in DMSO using an Echo 655 (Labcyte Inc) and added to 384 well assay plates (Greiner #781280). To the assay plates, 10 μL of human recombinant IRAK4 protein (Life Technologies #PV4002) diluted to a final concentration of 0.2 nM in assay buffer (50 mM Tris-HCl pH 7.4, 10 mM MgCl, 5 mM glutathione, 0.01% BSA, 3 mM ATP) was added. The enzyme was incubated with the compounds at room temperature for 15 minutes before a peptide substrate ([…], Innovagen custom synthesis, 10 mM in DMSO) was added to each well to a final concentration of 10 μM using an Echo 655 (Labcyte Inc). After two hours at room temperature, the reaction was stopped with 90 μL of 0.4% formic acid (Merck #33015). The unphosphorylated and phosphorylated peptide were measured by LC-MS/MS on a Waters TQ-S mass spectrometer. Peaks were integrated using the TargetLynx software and the ratios between phosphorylated and unphosphorylated peptides were calculated. Curves were fitted and compound potencies determined in Genedata Screener 15 (Genedata AG). Data presented are the geometric mean of at least n=2, or as denoted by an * are obtained from a single experiment.

[2] = molecular target: IRAK4 auto-phosphorylation (Homo sapiens (Human), UniProt Q9NWZ3); experiment: IRAK4 phosphorylation cell assay in IL-1β-stimulated Karpas-299 cells; assay type: cell-based; conditions: IL-1β 22.7 ng/mL, pIRAK4 (Thr345/Ser346), geometric mean of at least 2 experiments
IRAK4 auto-phosphorylation, sequence (Q9NWZ3 whole entry): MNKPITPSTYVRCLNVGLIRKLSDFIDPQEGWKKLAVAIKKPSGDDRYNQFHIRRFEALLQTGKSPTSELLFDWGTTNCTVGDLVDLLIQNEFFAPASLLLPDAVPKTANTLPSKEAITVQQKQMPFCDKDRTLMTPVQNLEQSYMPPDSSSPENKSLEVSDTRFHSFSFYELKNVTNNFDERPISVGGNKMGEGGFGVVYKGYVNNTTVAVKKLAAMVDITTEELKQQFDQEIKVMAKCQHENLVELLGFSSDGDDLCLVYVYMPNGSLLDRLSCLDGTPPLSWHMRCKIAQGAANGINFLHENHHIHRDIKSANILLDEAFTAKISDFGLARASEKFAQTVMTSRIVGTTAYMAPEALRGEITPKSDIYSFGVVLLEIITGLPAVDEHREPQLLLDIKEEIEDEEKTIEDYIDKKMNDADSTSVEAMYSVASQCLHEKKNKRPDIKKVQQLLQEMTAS
Experimental: IRAK4 Phosphorylation Cell Assay
The activation of IRAK4 by TLR or IL-1R ligands leads to IRAK4 auto-phosphorylation, which can be prevented by IRAK4 kinase inhibitors. The effect of IRAK4 inhibitor compounds on IRAK4 auto-phosphorylation was assessed in IL-1β-stimulated Karpas-299 cells as a measurement of cellular potency. Karpas-299 cells were cultured in RPMI 1640 (Gibco 61870-010) containing 10% FBS (Gibco #10270). Cells were plated at 2×10^4 cells per well in poly-D-lysine coated 384 well plates (Corning #356663) to which compounds had been added at various concentrations (10 point half log dose response with a final top concentration of 30 μM) using an Echo 655 (Labcyte Inc). Cells were centrifuged (250 g, 4 mins), incubated at 37° C. for 1 h, then stimulated with 22.7 ng/mL recombinant IL-1β (R&D Systems, #201-LB-025) at 37° C. for 10 mins, followed by fixation in 4% paraformaldehyde for 10 mins and permeabilization in ice-cold 70% MeOH for 30 mins. Cells were washed twice with phosphate-buffered saline (PBS) on a BlueWasher (BlueCatBio) then blocked with PBS containing 10% FBS for 20 mins. Blocking solution was removed with a BlueWasher and cells were stained with anti-pIRAK4 (Thr345/Ser346) (CST, #11927, 1:400) in blocking buffer with 0.05% Tween-20 for 1 h, then washed twice with PBS containing 0.05% Tween-20 on a BlueWasher, followed by staining with a Alexa 647-conjugated secondary anti-rabbit IgG antibody (CST, #4414, 1:2,000) and Hoechst 33342 (Sigma, 1:2,000) in blocking buffer with 0.05% Tween-20 for 30 mins. Finally, the cells were washed twice with PBS containing 0.05% Tween-20 and imaged on an ImageXpress Micro (Molecular Devices) with a 10× air objective using the appropriate filters. Images were analysed in Columbus (PerkinElmer) and the fluorescence intensity per cell from the secondary antibody was quantified. The quantified data were analysed in Genedata Screener 15 (Genedata AG). […] IC50 values are the geometric mean of at least 2 experiments.

human recombinant IRAK4 protein, sequence (Q9NWZ3 whole entry): as above

IC50 [1]	IC50 [2]	Molecule
10.6 nM	257 nM	6-Cyclopropoxy-2-((1s,4s)-4-(N-methylacetamido)cyclohexyl)-N-(pyrazolo[1,5-a]pyrimidin-3-yl)-2H-indazole-5-carboxamide [Example 32]
–	158 nM	COc1cc2nn([C@H]3CC[C@@H](O)C[C@@H]3C)cc2cc1C(=O)Nc1cnn2cccnc12 (relative stereo) [Example 40]
14.3 nM	331 nM	COc1cc2nn([C@H]3CC[C@@H](O)C[C@@H]3C)cc2cc1C(=O)Nc1cnn2cccnc12 (relative stereo) [Example 41]
–	89 nM	C[C@H]1C[C@H](O)CC[C@@H]1n1cc2cc(C(=O)Nc3cnn4cccnc34)c(OC3CC3)cc2n1 (relative stereo) [Example 42, rel-6-Cyclopropoxy-2-(1S,2S,4R)-4-hydroxy-2-methylcyclohexyl)-N-(pyrazolo[1,5-a]pyrimidin-3-yl)-2H-indazole-5-carboxamide]
1.8 nM	101 nM	C[C@H]1C[C@H](O)CC[C@@H]1n1cc2cc(C(=O)Nc3cnn4cccnc34)c(OC3CC3)cc2n1 (relative stereo) [Example 43, rel-6-Cyclopropoxy-2-(1S,2S,4R)-4-hydroxy-2-methylcyclohexyl)-N-(pyrazolo[1,5-a]pyrimidin-3-yl)-2H-indazole-5-carboxamide]
–	25 nM	C[C@@]1(O)CCC[C@H](n2cc3cc(C(=O)Nc4cnn5cccnc45)c(OC4CC4)cc3n2)C1 (relative stereo) [Example 54, rel-6-cyclopropoxy-2-(1S,3R)-3-hydroxy-3-methylcyclohexyl)-N-(pyrazolo[1,5-a]pyrimidin-3-yl)-2H-indazole-5-carboxamide]
0.7 nM	51 nM	C[C@@]1(O)CCC[C@H](n2cc3cc(C(=O)Nc4cnn5cccnc45)c(OC4CC4)cc3n2)C1 (relative stereo) [Example 55, rel-6-cyclopropoxy-2-(1S,3R)-3-hydroxy-3-methylcyclohexyl)-N-(pyrazolo[1,5-a]pyrimidin-3-yl)-2H-indazole-5-carboxamide]
0.4 nM	9 nM	COc1cc2nn([C@@H]3CC[C@]4(CC(=O)N(C)C4)C[C@H]3C)cc2cc1C(=O)Nc1cnc2cccnn12 (relative stereo) [Example 70, rel-2-(5R,7R,8R)-2,7-Dimethyl-3-oxo-2-azaspiro[4.5]decan-8-yl)-N-(imidazo[1,2-b]pyridazin-3-yl)-6-methoxy-2H-indazole-5-carboxamide or rel-2-(5R,7S,8S)-2,7-Dimethyl-3-oxo-2-azaspiro[4.5]decan-8-yl)-N-(imidazo[1,2-b]pyridazin-3-yl)-6-methoxy-2H-indazole-5-carboxamide]
1.9 nM	30 nM	COc1cc2nn([C@@H]3CC[C@]4(CC(=O)N(C)C4)C[C@H]3C)cc2cc1C(=O)Nc1cnc2cccnn12 (relative stereo) [Example 71, rel-2-(5R,7R,8R)-2,7-Dimethyl-3-oxo-2-azaspiro[4.5]decan-8-yl)-N-(imidazo[1,2-b]pyridazin-3-yl)-6-methoxy-2H-indazole-5-carboxamide or rel-2-(5R,7S,8S)-2,7-Dimethyl-3-oxo-2-azaspiro[4.5]decan-8-yl)-N-(imidazo[1,2-b]pyridazin-3-yl)-6-methoxy-2H-indazole-5-carboxamide]
0.4 nM	7 nM	COc1cc2nn([C@@H]3CC[C@]4(CC(=O)N(C)C4)C[C@H]3C)cc2cc1C(=O)Nc1cnc2cccnn12 (relative stereo) [Example 72, rel-2-(5R,7R,8R)-2,7-Dimethyl-3-oxo-2-azaspiro[4.5]decan-8-yl)-N-(imidazo[1,2-b]pyridazin-3-yl)-6-methoxy-2H-indazole-5-carboxamide or rel-2-(5R,7S,8S)-2,7-Dimethyl-3-oxo-2-azaspiro[4.5]decan-8-yl)-N-(imidazo[1,2-b]pyridazin-3-yl)-6-methoxy-2H-indazole-5-carboxamide]
3.2 nM	57 nM	COc1cc2nn([C@@H]3CC[C@]4(CC(=O)N(C)C4)C[C@H]3C)cc2cc1C(=O)Nc1cnc2cccnn12 (relative stereo) [Example 73, rel-2-(5R,7R,8R)-2,7-Dimethyl-3-oxo-2-azaspiro[4.5]decan-8-yl)-N-(imidazo[1,2-b]pyridazin-3-yl)-6-methoxy-2H-indazole-5-carboxamide or rel-2-(5R,7S,8S)-2,7-Dimethyl-3-oxo-2-azaspiro[4.5]decan-8-yl)-N-(imidazo[1,2-b]pyridazin-3-yl)-6-methoxy-2H-indazole-5-carboxamide]
–	15 nM	COc1cc2nn([C@H]3CCC[C@H](O)[C@@H]3C)cc2cc1C(=O)Nc1cnc2cccnn12 (relative stereo) [Example 106, rel-2-(1S,2R,3S)-3-Hydroxy-2-methylcyclohexyl)-N-(imidazo[1,2-b]pyridazin-3-yl)-6-methoxy-2H-indazole-5-carboxamide]
0.9 nM	24 nM	COc1cc2nn([C@H]3CCC[C@H](O)[C@@H]3C)cc2cc1C(=O)Nc1cnc2cccnn12 (relative stereo) [Example 107, rel-2-(1S,2R,3S)-3-Hydroxy-2-methylcyclohexyl)-N-(imidazo[1,2-b]pyridazin-3-yl)-6-methoxy-2H-indazole-5-carboxamide]
0.7 nM	21 nM	COc1cc2nn([C@H]3CC[C@H](N(C)C(=O)[C@@H]4CC[C@@H](O)C4)CC3)cc2cc1C(=O)Nc1cnn2cccnc12 (relative stereo) [Example 112]
0.7 nM	23 nM	COc1cc2nn([C@H]3CC[C@H](N(C)C(=O)[C@@H]4CC[C@@H](O)C4)CC3)cc2cc1C(=O)Nc1cnn2cccnc12 (relative stereo) [Example 113]
0.7 nM	16 nM	COc1cc2nn([C@H]3CC[C@H](N(C)C(=O)[C@@H]4CC[C@H](O)C4)CC3)cc2cc1C(=O)Nc1cnn2cccnc12 (relative stereo) [Example 114]
–	20 nM	COc1cc2nn([C@H]3CC[C@H](N(C)C(=O)[C@@H]4CC[C@H](O)C4)CC3)cc2cc1C(=O)Nc1cnn2cccnc12 (relative stereo) [Example 115]
3 nM	–	COc1cc2nn([C@@H]3CC[C@]4(CCC(=O)N4C)C[C@H]3C)cc2cc1C(=O)Nc1cnc2cccnn12 (relative stereo) [Example 123, rel-2-(5S,7R,8R)-1,7-Dimethyl-2-oxo-1-azaspiro[4.5]decan-8-yl)-N-(imidazo[1,2-b]pyridazin-3-yl)-6-methoxy-2H-indazole-5-carboxamide]
0.7 nM	44 nM	COc1cc2nn(C3CCC4(CC3)CC(C)(O)C4)cc2cc1C(=O)Nc1cnc2cccnn12 (single isomer, unassigned) [Example 6, 2-(2-Hydroxy-2-methylspiro[3.5]nonan-7-yl)-N-(imidazo[1,2-b]pyridazin-3-yl)-6-methoxy-2H-indazole-5-carboxamide]
2.3 nM	–	COc1cc2nn([C@@H]3CC[C@H](O)[C@H](C)C3)cc2cc1C(=O)Nc1cnc2cccnn12 (single isomer, unassigned) [Example 76]
–	10 nM	COc1cc2nn([C@H]3CC[C@H](N(C)C(=O)[C@H](C)O)CC3)cc2cc1C(=O)Nc1cnc2cccnn12 [Example 94, 2-((1S,4r)-4-((S)-2-Hydroxy-N-methylpropanamido)cyclohexyl)-N-(imidazo[1,2-b]pyridazin-3-yl)-6-methoxy-2H-indazole-5-carboxamide]
